Here are results for six molecules from paper PMC5419573, “TRPV1 activation power can switch an action mode for its polypeptide ligands” (PLoS ONE, 2017).

For experiment [1], the target named is T1, rat TRPV1 (Rattus norvegicus, UniProt O35433).
T1 construct: expressed in transfected cells; host or cells: CHO cells (T-Rex System, Invitrogen; tetracycline-induced)
Conditions: ref [8], [10], [11]; cited from earlier work. An excerpt: (§1) Since elaboration of TRPV1 pharmacology has obvious perspectives related to the potential treatment of pain and inflammation, many compounds affecting TRPV1 activation have been characterized. Some TRPV1 ligands have distinct effects on different modes of channel activation (heat, protons or chemical ligands).

Experiment [2] deals with T1, rat TRPV1. The experiment is classed as cell-based. The method, then:
(§2) All data were expressed as the mean ± standard deviation (SD). Significance of the effect was tested by ANOVA followed by Tukey’s post hoc analysis with the p-value of 0.05.

In experiment [3] the target is T1, rat TRPV1. The experiment is classed as cell-based. The method, then: Recordings were made by a patch-clamp technique in whole-cell configuration using CHO cells stably expressing rat TRPV1. Whole-cell currents were recorded and digitized by Instru TECH LIH 8+8 data acquisition system (HEKA, Germany) at -80 mV holding voltage using EPC-8 (HEKA, Germany) amplifier, filtered at 5 kHz, sampled at 10kHz and stored. The external solution contained in mM: CaCl2 2.5, KCl 5, NaCl 143, D-glucose 18, HEPES 10, pH 7.35. Patch pipettes (2–5 MΩ resistance) were prepared by puller model P-97 (Sutter Instruments, USA). Pipette solution contained in mM: CsF 100, CsCl 40, NaCl 5, CaCl2 0.5, EGTA 5, HEPES 10, pH 7.2. Series resistance of about 20 MΩ was compensated by 70–80% and monitored during experiments. Drugs were applied using the ALA-VM8 (ALA Scientific Instruments, USA) perfusion system under computer control. All experiments were performed at 22°C.
as §2
The cell line stably expressing rat TRPV1 was used for electrophysiological and internal Ca^2+ fluorescent recordings. […] In Fluo-4-based intracellular calcium assay experiments, capsaicin or 2APB were used as channel agonists. […] To take the response rundown in account, the peptide effects were measured relative to the average value of the preceding and subsequent control responses (see S2 Fig).
Fig 1 Action of APHCs on capsaicin-induced TRPV1 currents. […] G, Current–voltage relationship for TRPV1 currents induced by 3 and 0.3 μM capsaicin in control (black and red) and in the presence of 100 nM APHC1 (blue and magenta). […] I, Summary of the polypeptides action (100 nM) on TRPV1 responses activated by different concentrations of capsaicin, n = 9 for all series.
This is another data set of the same source.

The subject of another experiment is monkey TRPV1. Particulars: ref [10], [11]; cited from earlier work.
Text: as §1

Another experiment has as its system human TRPV1. Particulars: cited from earlier work.
Text: as §1

The subject of a further experiment is TRPV1. Set-up: method as in PMID 17093448, PMID 20510930, PMID 26420335, PMID 24061123. Particulars: ref [20], [21], [22], [39]; cited from earlier work.
The subject of a further experiment is mice. Particulars: ref [20], [21], [22]; cited from earlier work. An excerpt: Small lipophilic drugs can potentially reach their binding sites in different parts of a receptor, which complicates the study of mechanisms of action. Binding sites for membrane-impermeable peptide modulators should be localized at the outside surface of a channel protein. There are a few examples of polypeptides affecting TRPV1 channels.

“Also recorded” adds a separate entry of the source.

T1 sequence (O35433 whole entry): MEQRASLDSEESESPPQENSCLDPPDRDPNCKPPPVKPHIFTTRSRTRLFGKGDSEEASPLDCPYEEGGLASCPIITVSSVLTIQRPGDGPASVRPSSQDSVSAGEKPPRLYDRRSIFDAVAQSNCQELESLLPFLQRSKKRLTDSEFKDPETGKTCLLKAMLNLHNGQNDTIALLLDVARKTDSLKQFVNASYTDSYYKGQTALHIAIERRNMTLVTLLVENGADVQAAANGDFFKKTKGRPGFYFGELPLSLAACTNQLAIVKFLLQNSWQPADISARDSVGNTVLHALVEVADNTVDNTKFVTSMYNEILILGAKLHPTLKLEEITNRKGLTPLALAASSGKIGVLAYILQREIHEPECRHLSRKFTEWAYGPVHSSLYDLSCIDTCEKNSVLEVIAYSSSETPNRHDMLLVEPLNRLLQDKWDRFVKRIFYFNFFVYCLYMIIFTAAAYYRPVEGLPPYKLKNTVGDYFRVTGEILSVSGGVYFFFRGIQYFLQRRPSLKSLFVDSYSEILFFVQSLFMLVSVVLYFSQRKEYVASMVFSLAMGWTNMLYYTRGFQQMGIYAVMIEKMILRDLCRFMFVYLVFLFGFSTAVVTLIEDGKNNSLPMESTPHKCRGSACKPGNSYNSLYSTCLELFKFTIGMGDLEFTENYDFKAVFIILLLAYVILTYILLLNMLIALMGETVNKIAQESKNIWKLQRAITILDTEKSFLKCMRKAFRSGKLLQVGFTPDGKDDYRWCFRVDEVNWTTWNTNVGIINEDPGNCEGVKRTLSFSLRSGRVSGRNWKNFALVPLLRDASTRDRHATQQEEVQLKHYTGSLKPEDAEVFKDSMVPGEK

On to `Oc1cc2c(cc1O)CN(C(=S)NCCc1ccc(Cl)cc1)CCC2` [capsazepine], for which, at rat TRPV1 [1], the “effect on capsaicin response of rat TRPV1” value (from here on “effect on capsaicin response”) was “heat and capsaicin responses are blocked at low capsazepine concentrations”; the “effect on heat response of rat TRPV1” value was “heat and capsaicin responses are blocked at low capsazepine concentrations”; the “effect on proton response of rat TRPV1” value is on record as “ineffective as an antagonist of proton-induced response”. In addition, the “block of calcium responses to capsaicin” value at rat TRPV1 [2] is listed as “fully blocked; also recorded: abolished”. The “block of capsaicin-evoked currents” value on rat TRPV1 [3] is reported as “reversibly blocked; also recorded: abolished”.
On to `NCCOB(c1ccccc1)c1ccccc1` [2APB, 2-aminoethoxydiphenyl borate], for which, on rat TRPV1 [2], the “Ca2+ influx on agonist application” value was “did not result in a detectable Ca^2+ influx”. Also, on rat TRPV1 [3], the “reversal voltage of evoked currents” value is on record as “close to zero”.
Turning to `COc1cc(CNC(=O)CCCC/C=C/C(C)C)ccc1O` [capsaicin], the “reversal voltage of evoked currents” value at rat TRPV1 [3] is given as “close to zero”.
As for `CC(C)(C)c1ccc(CNC(=S)NCc2ccc(NS(C)(=O)=O)c(F)c2)cc1` [JYL-1421], the “action profile of rat TRPV1 (block of capsaicin, not heat or protons) on monkey TRPV1” value with monkey TRPV1 is “could not be shown”. On rat TRPV1 [1], the “effect on capsaicin response” value is “blocks responses to capsaicin” and the “effect on proton response of rat TRPV1” value was “not to heat or protons”. The “action profile of rat TRPV1 (block of capsaicin, not heat or protons) on human TRPV1” value with human TRPV1 (ref [10], [11]) was “could not be shown”.
As to `O=C(/C=C/c1ccc(C(F)(F)F)cc1N1CCCCC1)Nc1cccc2c1C[C@H](O)C2` [AMG8562, (R,E)-N-(2-hydroxy-2,3-dihydro-1H-inden-4-yl)-3-(2-(piperidin-1-yl)-4-(trifluoromethyl)phenyl)-acrylamide], on rat TRPV1 [1], the “effect on capsaicin response” value is listed as “blocks capsaicin activation”, the “effect on heat response of rat TRPV1” value is “does not affect heat activation” and the “effect on proton response of rat TRPV1” value was “potentiates proton activation”. Moreover, in the experiment with human TRPV1 (ref [11]), the “effect on capsaicin activation of human TRPV1” value is “blocks both heat and capsaicin activation”; the “effect on heat activation of human TRPV1” value is “blocks both heat and capsaicin activation”; the “effect on proton activation of human TRPV1” value is listed as “partial antagonist of proton activation”.

B1: DkTx: the bivalent toxin DkTx from tiger tarantula Ornithoctonus huwena (peptide, UniProt P0CH43 1-79, looked up)
Tau-theraphotoxin-Hs1a: DCAKEGEVCSWGKKCCDLDNFYCPMEFIPHCKKYKPYVPVTTNCAKEGEVCGWGSKCCHGLDCPLAFIPYCEKYRGRND
modifications: Tau-theraphotoxin-Hs1a
notes: the bivalent toxin DkTx from tiger tarantula Ornithoctonus huwena
For B1, the “action on TRPV1” value in the experiment on TRPV1 is “Peptide agonists of TRPV1”. For the same molecule, the “effect when injected in mice” value in the experiment with mice is recorded as “cause pain behavior”.
